Results as given in US9464077B2, “Nitrogen-containing aromatic heterocyclic compound” (Astellas Pharma Inc., priority 2012, dated 2016).

Columns and labels:
human recombinant FGFR1 = human recombinant FGFR1 (Homo sapiens, UniProt P11362); experiment: FGFR1 enzyme assay (LabChip EZ Reader)
Method: (§1) The compound was diluted with a solution of dimethyl sulfoxide (DMSO) (10-fold common ratio, 4 portions) before dilution with a reaction buffer (100 mM HEPES (pH7.5), 0.003% Brij-35, 0.004% Tween 20, 0.5 mM DTT, and 10 mM MgCl2) so that the final DMSO concentration was 2%. To 4 μL of the compound solution in a 384-well plate, 2 μL each of FGFR1 enzyme (2 or 3 ng/μL), FGFR2 enzyme (2 ng/μL), or FGFR3 enzyme (6 ng/μL) which were diluted with the reaction buffer was added. […] After the reaction was stopped, the reaction mixture was measured with a LabChip EZ Reader. The IC50 values were calculated by non-linear regression based on the inhibition rates obtained.

human recombinant FGFR3 = human recombinant FGFR3 (Homo sapiens, UniProt P22607); experiment: FGFR3 enzyme assay (LabChip EZ Reader)
Method: as §1

FGFR3_S249C/NIH3T3 cells = experiment: Growth assay of cells with forced expression of mutant FGFR3; assay type: cell-based; details: Mus musculus, NIH3T3, 120 h; 5 days after addition, CellTiter-Glo; read-out: IC50 (growth inhibition)
Method: FGFR3_S249C/NIH3T3 cells were added to a 96-well spheroid plate (U bottom) at a concentration of 3000 cells/well/90 μL, and the compound solution (10 μL) was added thereto on the next day (final DMSO concentration: 0.1%). The compound solution was prepared by serially diluting the compound with DMSO at a 3-fold common ratio (9 portions and DMSO only) from the maximum concentration of 10 mM and then diluted 100-fold with a culture medium (D-MEM, 10% FBS). 5 days after the addition of the compound, the growth inhibition caused by the compound was evaluated by Promega (G7573) CellTiter-Glo™ Luminescent Cell Viability Assay.

[1] = test system: UM-UC-14 (FGFR3_S249C-positive cells, bladder cancer); experiment: Antitumor test on UM-UC-14 subcutaneous xenograft; assay type: in vivo, nude mice; details: Mus musculus, UMUC14, 264 h; oral, 1 mg/kg/day, once a day, tumor volume at Day 11
Method: 3×10^6 UM-UC-14 cells per 0.1 mL (PBS+matrigel, 1:1) were inoculated subcutaneously into the right flank of nude mice (CAnN, Cg-Foxn1nu/CrlCrlj (nu/nu), male, 4- to 5-week-old), and when their tumor size reached about 250 mm^3, drug administration was started (Day 1). The drug was administered once a day and the tumor size was measured with a caliper and the body weight was also measured every two or three days. The antitumor effect was finally determined based on the tumor volume (mm^3; minor axis (mm)×minor axis (mm)×major axis (mm)/2) at Day 11 (n=3-5). To the control group, 0.5% MC (methyl cellulose) was administered. […] “% regression” indicates what percentage of regression could be achieved compared with the tumor volume at Day 1. Here, the tumor volume at Day 1 means tumor volume immediately before drug administration.

[2] = test system: bladder cancer patient-derived cell line RT4; experiment: Anchorage-independent cell growth inhibition, spheroid plate; assay type: cell-based; details: Homo sapiens, 96 h, 4 days, read-out: growth inhibition rate RT4
[3] = test system: bladder cancer patient-derived cell line RT-112; experiment: as above; assay type: cell-based; details: Homo sapiens, RT-112, 96 h, 4 days, read-out: growth inhibition rate RT-112
human recombinant FGFR2 = human recombinant FGFR2 (Homo sapiens, UniProt P21802); experiment: FGFR2 enzyme assay (LabChip EZ Reader)
human recombinant FGFR2, sequence (P21802 22-821): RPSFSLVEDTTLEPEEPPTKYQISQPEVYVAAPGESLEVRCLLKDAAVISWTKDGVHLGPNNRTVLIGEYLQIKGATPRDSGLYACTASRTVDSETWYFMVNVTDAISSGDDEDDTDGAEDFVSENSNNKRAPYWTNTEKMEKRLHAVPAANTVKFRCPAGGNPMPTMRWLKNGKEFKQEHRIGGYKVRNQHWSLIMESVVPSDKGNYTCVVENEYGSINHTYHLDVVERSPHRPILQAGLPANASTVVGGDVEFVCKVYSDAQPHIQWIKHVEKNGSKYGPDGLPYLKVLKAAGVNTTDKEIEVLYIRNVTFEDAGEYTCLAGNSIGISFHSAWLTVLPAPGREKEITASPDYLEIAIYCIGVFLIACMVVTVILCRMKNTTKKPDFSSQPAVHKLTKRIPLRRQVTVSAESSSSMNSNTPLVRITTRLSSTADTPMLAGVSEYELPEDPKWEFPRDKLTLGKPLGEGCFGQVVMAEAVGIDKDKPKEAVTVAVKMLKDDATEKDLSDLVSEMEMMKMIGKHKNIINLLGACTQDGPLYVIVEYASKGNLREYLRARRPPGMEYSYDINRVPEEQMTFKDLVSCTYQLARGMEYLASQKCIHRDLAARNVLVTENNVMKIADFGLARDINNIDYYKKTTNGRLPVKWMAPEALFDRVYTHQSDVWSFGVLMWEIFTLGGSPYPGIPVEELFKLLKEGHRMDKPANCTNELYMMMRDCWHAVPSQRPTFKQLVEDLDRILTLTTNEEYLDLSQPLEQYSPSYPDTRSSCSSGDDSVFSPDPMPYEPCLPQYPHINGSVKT
Method: as §1

human recombinant FGFR1, sequence (P11362 22-822): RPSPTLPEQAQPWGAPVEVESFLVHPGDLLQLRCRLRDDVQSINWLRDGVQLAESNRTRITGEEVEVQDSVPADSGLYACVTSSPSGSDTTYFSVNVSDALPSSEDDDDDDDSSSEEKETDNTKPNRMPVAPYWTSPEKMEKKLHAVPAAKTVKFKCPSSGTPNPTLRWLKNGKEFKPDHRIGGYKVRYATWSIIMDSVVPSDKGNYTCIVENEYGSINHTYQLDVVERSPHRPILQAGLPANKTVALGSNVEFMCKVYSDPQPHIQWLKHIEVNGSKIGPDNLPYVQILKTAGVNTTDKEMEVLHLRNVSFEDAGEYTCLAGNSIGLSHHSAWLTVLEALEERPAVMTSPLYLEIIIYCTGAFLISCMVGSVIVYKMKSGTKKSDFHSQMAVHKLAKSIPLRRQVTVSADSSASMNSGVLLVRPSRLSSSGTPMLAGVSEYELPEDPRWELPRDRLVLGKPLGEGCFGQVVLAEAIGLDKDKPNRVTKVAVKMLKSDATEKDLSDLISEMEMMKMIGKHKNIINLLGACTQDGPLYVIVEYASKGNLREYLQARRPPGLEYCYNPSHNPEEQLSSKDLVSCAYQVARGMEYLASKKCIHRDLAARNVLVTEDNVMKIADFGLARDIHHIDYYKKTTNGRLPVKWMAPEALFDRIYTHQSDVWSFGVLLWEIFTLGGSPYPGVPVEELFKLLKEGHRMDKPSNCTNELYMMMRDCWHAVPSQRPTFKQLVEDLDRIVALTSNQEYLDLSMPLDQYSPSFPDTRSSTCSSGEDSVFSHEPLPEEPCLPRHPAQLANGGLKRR
human recombinant FGFR3, sequence (P22607 23-806): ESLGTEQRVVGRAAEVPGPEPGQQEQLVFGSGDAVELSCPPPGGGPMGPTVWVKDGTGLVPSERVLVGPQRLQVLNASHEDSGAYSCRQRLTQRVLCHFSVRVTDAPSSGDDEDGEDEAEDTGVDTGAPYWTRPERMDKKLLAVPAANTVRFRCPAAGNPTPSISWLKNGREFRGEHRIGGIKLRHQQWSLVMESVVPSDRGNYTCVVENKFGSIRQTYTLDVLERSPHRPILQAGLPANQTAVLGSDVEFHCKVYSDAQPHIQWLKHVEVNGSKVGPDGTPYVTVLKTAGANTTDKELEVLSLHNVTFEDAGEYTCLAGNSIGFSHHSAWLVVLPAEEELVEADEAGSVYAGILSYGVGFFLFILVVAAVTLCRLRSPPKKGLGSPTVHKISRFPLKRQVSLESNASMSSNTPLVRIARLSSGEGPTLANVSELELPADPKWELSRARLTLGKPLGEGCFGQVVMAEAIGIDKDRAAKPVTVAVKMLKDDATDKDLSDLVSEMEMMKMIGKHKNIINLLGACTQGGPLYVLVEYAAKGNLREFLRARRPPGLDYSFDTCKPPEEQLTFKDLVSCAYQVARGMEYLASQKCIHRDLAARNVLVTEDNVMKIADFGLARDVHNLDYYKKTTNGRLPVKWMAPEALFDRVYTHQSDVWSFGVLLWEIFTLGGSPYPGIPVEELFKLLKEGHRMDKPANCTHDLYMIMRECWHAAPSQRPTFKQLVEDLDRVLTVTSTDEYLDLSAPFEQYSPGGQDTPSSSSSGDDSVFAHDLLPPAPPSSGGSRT

Structure (SMILES) | IC50 (human recombinant FGFR1) [nM] | IC50 (human recombinant FGFR3) [nM] | IC50 (FGFR3_S249C/NIH3T3 cells) [nM] | inhibition in vivo at 1 mg/kg/day [1] [%] | also measured
COc1cc(OC)c(F)c(CCc2cnc(Nc3ccc(N4CCC(N5CCN(C)CC5)CC4)c(F)c3)nc2)c1F [Example 33] | 2 | 2 | 26 | 70 | 
COc1cc(Nc2ncc(OCc3c(F)c(OC)cc(OC)c3F)cn2)ccc1N1CCC(N2CCN(C)CC2)CC1 [Example 56] | 2 |  |  |  | inhibition at 0.001 µM ([2]; 1 nM): 5%; inhibition at 0.01 µM ([2]; 10 nM): 42%; inhibition at 0.1 µM ([2]; 100 nM): 64%; inhibition at 0.001 µM ([3]; 1 nM): 29%; inhibition at 0.01 µM ([3]; 10 nM): 83%; inhibition at 0.1 µM ([3]; 100 nM): 90%; IC50 (human recombinant FGFR2): 2 nM
COc1cc(Nc2ncc(OCc3c(F)c(OC)cc(OC)c3F)cn2)ccc1N1CCN(C)CC1 [Example 57] | 1 |  |  |  | 
COc1cc(OC)c(Cl)c(COc2cnc(Nc3cnn(C4CCN(C)CC4)c3)nc2)c1Cl [Example 71] | 2 | 2 | 10 | 50 | 

Further lines, with some results ahead:

IC50 (human recombinant FGFR1) [nM] | IC50 (human recombinant FGFR3) [nM] | Structure (SMILES) | IC50 (FGFR3_S249C/NIH3T3 cells) [nM] | inhibition in vivo at 1 mg/kg/day [1] [%] | also measured
2 |  | COc1cc(Nc2ncc(CCc3c(F)c(OC)cc(OC)c3F)cn2)ccc1N1CCN(C)CC1 [Ex 7] |  |  | 
1 | 2 | COc1cc(OC)c(F)c(COc2cnc(Nc3cnn(C[C@H](O)CO)c3)nc2)c1F [Ex 11] | 13 |  | 
 | 2 | COc1cc(OC)c(Cl)c(COc2cnc(Nc3cnn(C4CCNCC4)c3)nc2)c1Cl [Example 72] | 24 | 30 | IC50 (human recombinant FGFR2): 2 nM
